From ChEMBL document CHEMBL3608273, “Discovery of Biaryl Amides as Potent, Orally Bioavailable, and CNS Penetrant RORγt Inhibitors” (ACS Med Chem Lett, 2015) come the findings set out here.

A short description of data set [1]: Inhibition of Th17 cell differentiation in mouse CD4-positive T cells incubated for 3 days by ELISA method. The following applies: Th17, 72 h, read-out: pIC50 (converted). On the technique in general: ELISA stands for enzyme-linked immunosorbent assay.
A short description of data set [2]: AUC (0 to 4 hrs) in C57BL/6 mouse brain at 2 mg/kg, ip by LC/MS/MS method. The format is ADME, organism-based. More on the design: time < 4 hr, dose 2 mg/kg, route intraperitoneal.
Data set [3] in a line: AUC (0 to 4 hrs) in C57BL/6 mouse blood at 2 mg/kg, ip by LC/MS/MS method. More on the design: time < 4 hr, dose 2 mg/kg, route intraperitoneal. The format is ADME, organism-based.
Data set [4] has as its system Mus musculus. The experiment in a line: Volume of distribution at steady state in C57BL/6 mouse at 1 mg/kg, ip by LC/MS/MS method. Particulars: in vivo. The format is ADME, organism-based.
The test system of data set [5] is Mus musculus. The experiment in a line: Dose normalized AUC (0 to infinity) in C57BL/6 mouse at 2 mg/kg, po by LC/MS/MS method. The data set is classed as ADME, organism-based. The following applies: in vivo.
Data set [6] in a line: Cmax in C57BL/6 mouse at 2 mg/kg, po by LC/MS/MS method. The data set is classed as ADME, organism-based. More on the design: dose 2 mg/kg, route oral. The following applies: in vivo.
Data set [7] in a line: Blood clearance in C57BL/6 mouse at 1 mg/kg, ip by LC/MS/MS method. The data set is classed as ADME, organism-based.
Data set [8] is described as follows: Half life in C57BL/6 mouse at 1 mg/kg, ip by LC/MS/MS method. The format is ADME, organism-based. Particulars: in vivo.
Data set [9] in a line: Oral bioavailability in C57BL/6 mouse at 2 mg/kg by LC/MS/MS method. The format is ADME, organism-based. The following applies: in vivo.
Data set [10] is described as follows: Ratio of AUC (0 to 4 hrs) in brain to blood of C57BL/6 mouse at 2 mg/kg, ip by LC/MS/MS method. The data set is classed as ADME, organism-based.
Data set [11] addresses T1, Nuclear receptor ROR-gamma (Homo sapiens, UniProt P51449).
T1 sequence (P51449 whole entry): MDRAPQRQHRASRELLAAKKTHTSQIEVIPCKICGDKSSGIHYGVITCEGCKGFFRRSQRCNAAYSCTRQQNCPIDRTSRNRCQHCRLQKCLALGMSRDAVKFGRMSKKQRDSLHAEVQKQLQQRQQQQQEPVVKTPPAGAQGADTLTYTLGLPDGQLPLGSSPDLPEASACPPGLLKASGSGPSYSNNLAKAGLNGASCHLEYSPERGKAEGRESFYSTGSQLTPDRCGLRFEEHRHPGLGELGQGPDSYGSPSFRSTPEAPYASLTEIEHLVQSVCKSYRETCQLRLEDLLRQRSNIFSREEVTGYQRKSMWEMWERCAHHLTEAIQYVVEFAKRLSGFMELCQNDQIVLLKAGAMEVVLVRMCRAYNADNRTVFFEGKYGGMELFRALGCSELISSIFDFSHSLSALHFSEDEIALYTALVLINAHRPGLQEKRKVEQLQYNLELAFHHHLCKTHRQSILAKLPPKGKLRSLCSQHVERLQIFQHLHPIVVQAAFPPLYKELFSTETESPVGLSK
Kind of data set: Inhibition of RORgammat (unknown origin) assessed as inhibition of agonist-induced response by FRET assay.

Data set [12] is filed under the species Mus musculus. The following applies: C57BL/6 (B6), 1 to 10 mg/kg.
Description: Inhibition of disease severity in C57BL/6 (B6) mouse model of experimental autoimmune encephalomyelitis at 1 to 10 mg/kg, po qd dosed starting from day of immunization
Data set [13] deals with Mus musculus. The experiment in a line: Dose normalized AUC (0 to infinity) in C57BL/6 mouse at 10 mg/kg, po by LC/MS/MS method. The data set is classed as ADME, organism-based. Particulars: in vivo.

Turning to `CCS(=O)(=O)c1ccc(CC(=O)Nc2ccc(-c3ccccc3OC(F)(F)F)c(-c3ccno3)c2)cc1`, in data set [1], the IC50 was 63.1 nM.

On to `CCS(=O)(=O)c1ccc(CC(=O)Nc2ccc(-c3cccn3C)c(Cl)c2)cc1`, for which the IC50 in data set [1] was more than 6310 nM.

As usually defined, the AUC(0-t) is the area under the concentration-time curve up to a stated or last time point. Lower therefore signals less exposure. For `CS(=O)(=O)c1ccc(CC(=O)Nc2ccc(-c3ccc(Cl)cc3OC(F)(F)F)c(F)c2)cc1`, the figures for the AUC(0-t) at 4 h in data set [2] and in [3] were 2350 ng·h/mL and 2020 ng·h/mL, respectively. In addition, the IC50 in [1] is 50.1 nM.

As to `CCS(=O)(=O)c1ccc(CC(=O)Nc2ccc(-c3ccccc3CN(C)C)c(Cl)c2)cc1`, the IC50 in data set [1] was more than 10000 nM.

Take `CCS(=O)(=O)c1ccc(CC(=O)Nc2ccc(-c3ccccc3OC(F)(F)F)c(C(=O)O)c2)cc1`: in data set [1], the IC50 is more than 10000 nM.

Take `CCS(=O)(=O)c1ccc(CC(=O)Nc2ccc(-c3ccccc3OC(F)(F)F)c(C(C)=O)c2)cc1`: the IC50 in data set [1] was 2510 nM.

As for `CCS(=O)(=O)c1ccc(CC(=O)Nc2ccc(-c3ccccc3)c(Cl)c2)cc1`, the IC50 in [1] is 6310 nM.

As to `CCS(=O)(=O)c1ccc(CC(=O)Nc2ccc(-c3ccccc3OC(C)C)c(Cl)c2)cc1`, the IC50 in data set [1] is 79.4 nM.

The Cmax is the maximum level reached in the sampled fluid or tissue. By CL/F is commonly meant the apparent clearance, not corrected for the fraction that reaches the circulation. The half-life is the time in which the quantity being followed falls by half. Read a low half-life as fast loss. `CCS(=O)(=O)c1ccc(CC(=O)Nc2ccc(-c3ccccc3C(F)(F)F)c(Cl)c2)cc1` gave a Vdss with Mus musculus [4] of 3.2 L/kg. Also, in the data set with Mus musculus [5], the AUC/dose came to 713 ng·h/mL/mg/kg. The highest level in data set [6] (Cmax) was 211 ng/mL. The IC50 in [1] is 200 nM. Besides, the apparent clearance CL/F in data set [7] was 17.6 mL/min/kg. This compound had a half-life in data set [8] of 2.2 h. In data set [9], the bioavailability is 75%.

Regarding `CCS(=O)(=O)c1ccc(CC(=O)Nc2cc(Cl)c(-c3ccc(F)cc3C#N)c(Cl)c2)cc1`, the AUC(0-t) at 4 h in [2] is 76 ng·h/mL; in data set [3] it was 1380 ng·h/mL. Also, in data set [1], the IC50 is 158 nM.

For `CCS(=O)(=O)c1ccc(CC(=O)Nc2cc(Cl)c(-c3ccccc3C#N)c(Cl)c2)cc1`, the results for the AUC(0-t) at 4 h in data set [2] and in data set [3] were 200 ng·h/mL and 1930 ng·h/mL, respectively. Besides, the IC50 in data set [1] was 79.4 nM.

As to `CCS(=O)(=O)c1ccc(CC(=O)Nc2cc(Cl)c(-c3ccccc3OC(F)(F)F)c(C#N)c2)cc1`, the IC50 in [1] is 31.6 nM.

For `CCS(=O)(=O)c1ccc(CC(=O)Nc2ccc(-c3ccccc3OC(F)(F)F)c(C)c2)cc1`, the IC50 in [1] is 25.1 nM.

In the case of `CCS(=O)(=O)c1ccc(CC(=O)Nc2ccc(-c3ccccc3OC(F)(F)F)nc2)cc1`, the IC50 in [1] is 7940 nM.

Consider `CCS(=O)(=O)c1ccc(CC(=O)Nc2ccc(-c3ccccc3OC(F)(F)F)cc2)cc1`, for which the IC50 in data set [1] was 158 nM.

Regarding `CCS(=O)(=O)c1ccc(CC(=O)Nc2cc(C)c(-c3ccccc3OC(F)(F)F)c(Cl)c2)cc1`, the IC50 in data set [1] was less than 3.16 nM.

Broadly, the Kp is the ratio of the level in a tissue or fluid to that in plasma or blood. For the compound `CCS(=O)(=O)c1ccc(CC(=O)Nc2nc(-c3cc(Cl)ccc3Cl)cs2)cc1`, the Kp in [10] amounted to 1.5.

As to `CCS(=O)(=O)c1ccc(CC(=O)Nc2ccc(-c3ccccc3OC(F)(F)F)c(Cl)c2)cc1`, the Vdss in the data set on Mus musculus [4] amounted to 3.8 L/kg. The AUC/dose in the data set on Mus musculus [5] was 1313 ng·h/mL/mg/kg. In data set [6], this compound displayed a Cmax of 203 ng/mL. The IC50 in data set [1] is 79.4 nM. In data set [7], this compound came in with a CL/F of 11.6 mL/min/kg. Moreover, in [8], the half-life is 4.2 h. Besides, in [9], the bioavailability is 102%.

With `CCS(=O)(=O)c1ccc(CC(=O)Nc2ccc(-c3ccc(Cl)cc3OC(F)(F)F)c(Cl)c2)cc1`, the values for the AUC(0-t) at 4 h in [2] and in [3] were 1760 ng·h/mL and 881 ng·h/mL, respectively. Also, in data set [1], the IC50 was 7.94 nM.

Consider `CCS(=O)(=O)c1ccc(CC(=O)Nc2ccc(-c3ccccc3Cl)c(Cl)c2)cc1`, for which the IC50 in [1] is 1000 nM.

As to `CCS(=O)(=O)c1ccc(CC(=O)Nc2nnc(-c3cc(Cl)ccc3Cl)s2)cc1`, the IC50 in data set [11] was more than 25100 nM.

Consider `CCS(=O)(=O)c1ccc(CC(=O)Nc2ncc(-c3cc(Cl)ccc3Cl)s2)cc1`, for which the IC50 in data set [11] was more than 25100 nM.

For the compound `CCS(=O)(=O)c1ccc(CC(=O)Nc2ccc(-c3ccccc3OC(F)(F)F)c(C(F)(F)F)c2)cc1`, in [1], the IC50 is 126 nM.

Turning to `CS(=O)(=O)c1ccc(CC(=O)Nc2ccc(-c3ccc(Cl)cc3OC(F)(F)F)c(Cl)c2)cc1`, the AUC(0-t) at 4 h in data set [2] came to 1700 ng·h/mL; in data set [3], 1730 ng·h/mL. Also, the IC50 in data set [1] was 25.1 nM.

Take `NS(=O)(=O)c1ccc(CC(=O)Nc2cc(Cl)c(-c3ccccc3OC(F)(F)F)c(Cl)c2)cc1`: the AUC(0-t) at 4 h in data set [2] is 388 ng·h/mL; in data set [3], 4880 ng·h/mL. In addition, in data set [1], the IC50 is 7.94 nM.

As for `CCS(=O)(=O)c1ccc(CC(=O)Nc2ccc(-c3ccccc3)cc2)cc1`, the IC50 in [1] is more than 10000 nM.

For `CCS(=O)(=O)c1ccc(CC(=O)Nc2cccc(-c3cc(Cl)ccc3Cl)n2)cc1`, the IC50 in data set [11] is more than 25100 nM.

As for `CCS(=O)(=O)c1ccc(CC(=O)Nc2cc(Cl)c(-c3ccccc3OC(F)F)c(Cl)c2)cc1`, the AUC(0-t) at 4 h in data set [2] came out at 462 ng·h/mL; in data set [3], 1180 ng·h/mL. In addition, the IC50 in data set [1] is 10 nM.

As for `Cc1cc(NC(=O)Cc2ccc(S(C)(=O)=O)cc2)ccc1-c1ccc(Cl)cc1OC(F)(F)F`, the figures for the AUC(0-t) at 4 h in [2] and in [3] were 3520 ng·h/mL and 2400 ng·h/mL, respectively. Moreover, the inhibition result in the data set listed under Mus musculus [12] is “Dose-dependent effect”. In data set [1], the IC50 was 63.1 nM. In the data set with Mus musculus [13], this compound yielded an AUC/dose of 4048 ng·h/mL/mg/kg.

Regarding `CCS(=O)(=O)c1ccc(CC(=O)Nc2cc(Cl)c(-c3ccccc3OC(F)(F)F)c(Cl)c2)cc1`, the figures for the AUC(0-t) at 4 h in [2] and in data set [3] were 946 ng·h/mL and 1220 ng·h/mL, respectively.

Turning to `CS(=O)(=O)c1ccc(CC(=O)Nc2cc(Cl)c(-c3ccccc3OC(F)(F)F)c(Cl)c2)cc1`, the Vdss with Mus musculus [4] amounted to 4.4 L/kg. Further, the AUC/dose with Mus musculus [5] amounted to 2465 ng·h/mL/mg/kg. In addition, the AUC(0-t) at 4 h in data set [2] amounted to 658 ng·h/mL; in [3] it was 835 ng·h/mL. The compound also registered a peak concentration (Cmax) in [6] of 214 ng/mL. The compound also had a CL/F in [7] of 5.5 mL/min/kg. Further, the half-life in data set [8] was 9.7 h. In addition, in data set [9], the bioavailability worked out at 100%.

On to `CCS(=O)(=O)c1ccc(CC(=O)Nc2ccc(-c3ncccc3C(F)(F)F)c(Cl)c2)cc1`, for which the IC50 in data set [1] was more than 5010 nM.

For the compound `CCS(=O)(=O)c1ccc(CC(=O)Nc2ccc(-c3ccccc3OC(F)(F)F)c(-c3cncnc3)c2)cc1`, the IC50 in data set [1] was less than 31.6 nM.
